Read-outs that look alike come from different tables or passages of the source. Where a SMILES comes first, the peptide text is derived from it. [ ]: non-standard residue; d: D form. pT = C[C@@H](OP(=O)(O)O)[C@H](N)C(=O)O; pS = N[C@@H](COP(=O)(O)O)C(=O)O
How the values were obtained:
14-3-3 isoform gamma = target: T1, 14-3-3 isoform gamma (Homo sapiens, UniProt P61981); test: Label-free microscale thermophoresis (MST) binding, 14-3-3 gamma; settings: 0.6 µM 14-3-3 protein, 25 mM MES pH 6.5, 5 mM MgCl2, 5 mM CaCl2, 25°C, Kd from duplicate measurements, aggr. = no successful experiment
T1 construct: His6; made in house; host or cells: Escherichia coli BL21 Rosetta (DE3)
T1 sequence (P61981 1-247): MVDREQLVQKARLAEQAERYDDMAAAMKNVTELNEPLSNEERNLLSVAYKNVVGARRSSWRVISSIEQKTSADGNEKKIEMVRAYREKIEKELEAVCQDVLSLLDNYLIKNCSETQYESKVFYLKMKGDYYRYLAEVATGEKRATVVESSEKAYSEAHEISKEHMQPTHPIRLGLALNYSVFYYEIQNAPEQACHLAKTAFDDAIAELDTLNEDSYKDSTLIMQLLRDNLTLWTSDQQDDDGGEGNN
Protocol: (§1) The binding of phosphorylated sirtuin peptides (Fig. 1 ▸) was analyzed using the change in the intrinsic fluorescence signal of the 14-3-3 proteins measured with label-free microscale thermophoresis using a Nanotemper Monolith NT.LabelFree or NT.115. A typical binding experiment using 0.6 µM 14-3-3 protein was performed in a modified MST buffer consisting of 25 mM MES pH 6.5, 5 mM MgCl2, 5 mM CaCl2. The measurements were performed at 25°C using a LED power of 10–40%. All measurements were performed at least in duplicate, and the results shown are representative measurements individually fitted using GraFit 7 (Erathicus Software, Horley, United Kingdom).
Figure 1 Classification and analysis of sirtuin PSSM results for potential 14-3-3 phosphoserine binding sites. Peptides with a gray background were not analyzed experimentally. Score is the overall PSSM score for the phosphorylation site; rank is the order within the 17 proposed sirtuin binding sites. Conserved residues in the 14-3-3 motifs are marked in green. Residues with restricted (proline) or very flexible (glycine) protein backbone or with a very large side chain (tryptophan) are marked in red. Amino acids with the same or similar hydrophobicity/size are shown in magenta. Kd values from duplicate measurements are colored green for Kd < 100 µM. Fields marked in red indicate no binding or no successful experiment. […]

14-3-3σ-ΔC = target: T2, 14-3-3σ-ΔC (Homo sapiens, UniProt P31947); test: Label-free microscale thermophoresis (MST) binding, 14-3-3σ; settings: for Affinity estimates by MicroScale Thermophoresis, 14-3-3 isoform sigma (Kd): Fig. 1, label-free MST, 0.6 µM 14-3-3 protein, 25 mM MES pH 6.5, 5 mM MgCl2, 5 mM CaCl2, 25°C, Kd from duplicate measurements
T2 construct: His6; made in house; host or cells: Escherichia coli BL21 Rosetta (DE3)
T2 sequence (P31947 1-231 limits assumed): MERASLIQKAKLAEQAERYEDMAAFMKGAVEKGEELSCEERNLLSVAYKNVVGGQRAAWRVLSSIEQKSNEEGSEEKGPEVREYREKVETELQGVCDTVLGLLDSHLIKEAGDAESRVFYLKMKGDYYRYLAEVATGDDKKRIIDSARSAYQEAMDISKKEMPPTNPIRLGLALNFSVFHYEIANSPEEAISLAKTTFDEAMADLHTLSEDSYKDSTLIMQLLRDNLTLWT
Protocol: as §1
(§2) Figure 1 Classification and analysis of sirtuin PSSM results for potential 14-3-3 phosphoserine binding sites. Peptides with a gray background were not analyzed experimentally. Score is the overall PSSM score for the phosphorylation site; rank is the order within the 17 proposed sirtuin binding sites. Conserved residues in the 14-3-3 motifs are marked in green. Residues with restricted (proline) or very flexible (glycine) protein backbone or with a very large side chain (tryptophan) are marked in red. Amino acids with the same or similar hydrophobicity/size are shown in magenta. Kd values from duplicate measurements are colored green for Kd < 100 µM. Fields marked in red indicate no binding or no successful experiment. TEXT PRINTED IN THE PICTURE: Sirt1 S26: Affinity estimates by MicroScale Thermophoresis [μM], 14-3-3 isoform sigma: none | Sirt1 S670: Affinity estimates by MicroScale Thermophoresis [μM], 14-3-3 isoform gamma: aggr.; Affinity estimates by MicroScale Thermophoresis [μM], 14-3-3 isoform epsilon: > 183; Affinity estimates by MicroScale Thermophoresis [μM], 14-3-3 isoform theta: 93; Affinity estimates by MicroScale Thermophoresis [μM], 14-3-3 isoform sigma: 5 | Sirt3 S103: Affinity estimates by MicroScale Thermophoresis [μM], 14-3-3 isoform gamma: aggr.; Affinity estimates by MicroScale Thermophoresis [μM], 14-3-3 isoform epsilon: > 267; Affinity estimates by MicroScale Thermophoresis [μM], 14-3-3 isoform theta: 52; Affinity estimates by MicroScale Thermophoresis [μM], 14-3-3 isoform sigma: 10 | Sirt3 S103wt: Affinity estimates by MicroScale Thermophoresis [μM], 14-3-3 isoform gamma: aggr.; Affinity estimates by MicroScale Thermophoresis [μM], 14-3-3 isoform theta: none; Affinity estimates by MicroScale Thermophoresis [μM], 14-3-3 isoform sigma: none | Sirt3 S105: Affinity estimates by MicroScale Thermophoresis [μM], 14-3-3 isoform gamma: aggr.; Affinity estimates by MicroScale Thermophoresis [μM], 14-3-3 isoform epsilon: > 215; Affinity estimates by MicroScale Thermophoresis [μM], 14-3-3 isoform theta: 60; Affinity estimates by MicroScale Thermophoresis [μM], 14-3-3 isoform sigma: none | Sirt5 S168: Affinity estimates by MicroScale Thermophoresis [μM], 14-3-3 isoform epsilon: aggr.; Affinity estimates by MicroScale Thermophoresis [μM], 14-3-3 isoform theta: aggr.; Affinity estimates by MicroScale Thermophoresis [μM], 14-3-3 isoform sigma: > 329 | Sirt6 T337: Affinity estimates by MicroScale Thermophoresis [μM], 14-3-3 isoform epsilon: > 420; Affinity estimates by MicroScale Thermophoresis [μM], 14-3-3 isoform sigma: 12 | Sirt6 S338: Affinity estimates by MicroScale Thermophoresis [μM], 14-3-3 isoform epsilon: 19; Affinity estimates by MicroScale Thermophoresis [μM], 14-3-3 isoform sigma: 24 | Sirt7 S136: Affinity estimates by MicroScale Thermophoresis [μM], 14-3-3 isoform epsilon: none; Affinity estimates by MicroScale Thermophoresis [μM], 14-3-3 isoform theta: 30; Affinity estimates by MicroScale Thermophoresis [μM], 14-3-3 isoform sigma: 49
For nine of the sites, including sites from all sirtuin isoforms except Sirt4, endecameric phosphopeptides were chemically synthesized for in vitro analysis. […]

14-3-3 isoform theta = target: T3, 14-3-3 isoform theta (Homo sapiens, UniProt P27348); test: Label-free microscale thermophoresis (MST) binding, 14-3-3 theta; settings: for Affinity estimates by MicroScale Thermophoresis, 14-3-3 isoform theta (Kd): label-free MST, 0.6 µM 14-3-3 protein, 25 mM MES pH 6.5, 5 mM MgCl2, 5 mM CaCl2, 25°C, Kd from duplicate measurements
T3 construct: His6; made in house; host or cells: Escherichia coli BL21 Rosetta (DE3)
T3 sequence (P27348 1-245): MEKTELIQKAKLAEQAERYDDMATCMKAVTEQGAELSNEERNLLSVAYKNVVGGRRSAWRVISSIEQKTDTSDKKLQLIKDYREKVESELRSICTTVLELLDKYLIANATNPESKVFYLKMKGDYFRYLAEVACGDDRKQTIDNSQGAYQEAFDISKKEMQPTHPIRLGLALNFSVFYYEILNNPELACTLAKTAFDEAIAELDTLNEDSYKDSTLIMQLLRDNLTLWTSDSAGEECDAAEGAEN
Protocol: as §1, §2

14-3-3 isoform epsilon = target: T4, 14-3-3 isoform epsilon (Homo sapiens, UniProt P62258); test: Label-free microscale thermophoresis (MST) binding, 14-3-3 epsilon
T4 construct: His6; made in house; host or cells: Escherichia coli BL21 Rosetta (DE3)
T4 sequence (P62258 1-255): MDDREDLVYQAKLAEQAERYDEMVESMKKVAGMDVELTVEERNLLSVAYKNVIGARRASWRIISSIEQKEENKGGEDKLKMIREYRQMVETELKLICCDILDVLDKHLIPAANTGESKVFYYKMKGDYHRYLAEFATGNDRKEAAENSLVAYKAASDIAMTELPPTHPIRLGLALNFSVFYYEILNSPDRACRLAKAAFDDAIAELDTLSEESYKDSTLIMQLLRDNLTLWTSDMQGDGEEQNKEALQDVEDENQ
Protocol: as §1, §2

Row | SMILES | Affinity estimates by MicroScale Thermophoresis, 14-3-3 isoform gamma (Kd) (14-3-3 isoform gamma) | Affinity estimates by MicroScale Thermophoresis, 14-3-3 isoform sigma (Kd) (14-3-3σ-ΔC) | Affinity estimates by MicroScale Thermophoresis, 14-3-3 isoform theta (Kd) (14-3-3 isoform theta) | Kd (14-3-3 isoform epsilon) [µM] | Kd (14-3-3σ-ΔC) [µM] | Kd (14-3-3 isoform theta) [µM] | also measured
1 | CC[C@H](C)[C@H](NC(=O)[C@H](CO)NC(=O)[C@H](CCCNC(=N)N)NC(=O)[C@H](CCCNC(=N)N)NC(=O)CN)C(=O)N[C@@H](CO)C(=O)N[C@@H](Cc1ccccc1)C(=O)N[C@@H](CO)C(=O)N[C@H](C(=O)NCC(=O)N[C@@H](C)C(=O)O)C(C)C [Sirt3^S103] (H-GRRSISFSVGA-OH) | aggr. | none | none |  |  |  | 
2 | CC[C@H](C)[C@H](NC(=O)[C@H](CO)NC(=O)[C@H](CCCNC(=N)N)NC(=O)[C@H](CCCNC(=N)N)NC(=O)CN)C(=O)N[C@@H](COP(=O)(O)O)C(=O)N[C@@H](Cc1ccccc1)C(=O)N[C@@H](CO)C(=O)N[C@H](C(=O)NCC(=O)N[C@@H](C)C(=O)O)C(C)C [Sirt3^pS103] (H-GRRSI[pS]FSVGA-OH) | aggr. |  |  | > 267 | 2.1 ± 1.1 | 52 | 
3 | CC[C@H](C)[C@H](NC(=O)[C@H](CO)NC(=O)[C@@H](N)CCCNC(=N)N)C(=O)N[C@@H](CO)C(=O)N[C@@H](Cc1ccccc1)C(=O)N[C@@H](COP(=O)(O)O)C(=O)N[C@H](C(=O)NCC(=O)N[C@@H](C)C(=O)N[C@@H](CO)C(=O)N[C@@H](CO)C(=O)O)C(C)C [Sirt3^pS105] (H-RSISF[pS]VGASS-OH) | aggr. | none |  | > 215 | 19.4 ± 3 | 60 | 
4 | CC(C)[C@H](NC(=O)CNC(=O)[C@H](CS)NC(=O)[C@H](COP(=O)(O)O)NC(=O)[C@@H](NC(=O)[C@H](CS)NC(=O)[C@H](CCCNC(=N)N)NC(=O)[C@@H](NC(=O)[C@@H](N)CCCCN)[C@@H](C)O)[C@@H](C)O)C(=O)N[C@H](C(=O)N[C@@H](C)C(=O)O)C(C)C [Sirt5 S168] (H-KTRCT[pS]CGVVA-OH; N-terminus and C-terminus assumed) |  |  | aggr. |  |  |  | Affinity estimates by MicroScale Thermophoresis, 14-3-3 isoform epsilon (Kd) (14-3-3 isoform epsilon; label-free MST, 0.6 µM 14-3-3 protein, 25 mM MES pH 6.5, 5 mM MgCl2, 5 mM CaCl2, 25°C, Kd from duplicate measurements): aggr.
5 | C[C@H](NC(=O)[C@@H]1CCCN1C(=O)[C@H](COP(=O)(O)O)NC(=O)[C@@H](NC(=O)[C@@H]1CCCN1C(=O)[C@H](CCCNC(=N)N)NC(=O)[C@H](CCC(=O)O)NC(=O)[C@@H](N)CCCNC(=N)N)[C@@H](C)O)C(=O)N1CCC[C@H]1C(=O)N[C@@H](Cc1c[nH]cn1)C(=O)N[C@@H](CCCNC(=N)N)C(=O)O [Sirt6^pS338] (H-RERPT[pS]PAPHR-OH) |  |  |  |  |  |  | Kd (14-3-3 isoform epsilon; label-free MST, 0.6 µM 14-3-3 protein, 25 mM MES pH 6.5, 5 mM MgCl2, 5 mM CaCl2, 25°C, Kd from duplicate measurements, read-out: Affinity estimates by MicroScale Thermophoresis, 14-3-3 isoform epsilon (Kd)): 19 µM
6 | C[C@H](NC(=O)[C@@H]1CCCN1C(=O)[C@H](CO)NC(=O)[C@@H](NC(=O)[C@@H]1CCCN1C(=O)[C@H](CCCNC(=N)N)NC(=O)[C@H](CCC(=O)O)NC(=O)[C@H](CCCNC(=N)N)NC(=O)[C@@H](N)CCCCN)[C@@H](C)OP(=O)(O)O)C(=O)N1CCC[C@H]1C(=O)N[C@@H](Cc1c[nH]cn1)C(=O)O [Sirt6^pT337] (H-KRERP[pT]SPAPH-OH) |  |  |  | > 420 |  |  | 

From paper PMC12809495, “Potential 14-3-3 binding sites in sirtuins reveal extended phosphosite-recognition modes” (Acta Crystallographica Section F: Structural Biology …, 2026)
